Experiments:
C8161 melanoma cells = assay: Melanoma cell morphology; format: cell-based, human; conditions: 100 μg/mL, 24 hours; FIG. 11B
Procedure: (§1) Human M21 melanoma cells or C8161 melanoma cells were incubated in the presence of 100 μg/mL of C-45-Na or C-45-HCl for 24 hours. DMSO control samples lacking C-45-Na and C-45-HCl were also prepared.

Human M21 melanoma cells [1] = assay: M21 melanoma cell proliferation, MTT assay; format: cell-based
Procedure: (§2) Human M21 melanoma cells were washed and re-suspended in proliferation buffer containing 1.0% serum in the presence or absence of 100 ng/mL of C-45-Na, or C-45-HCl. DMSO control samples lacking C-45-Na or C-45-HCl were also prepared. Treated cells (1,500/well) were added to individual wells of a cell culture microtiter plate and allowed to grow over a time course of 3 days. Proliferation was monitored using a commercially available MTT assay (Millipore). Data points represent the mean±standard deviations from triplicate wells.
as §2, with “C-45-HCl.” for “C-45-HCl. DMSO control samples lacking C-45-Na or C-45-HCl were also prepared.”
as §2, with “0.5%” for “1.0%”, “presence” for “presence or absence”, “50 μg/mL” for “100 ng/mL”, “C-45-Na, C-45-K,” for “C-45-Na,”, “C-45-Na, C-45-K, and” for “C-45-Na or”
(§3) In Example 6, the differential effects of C-45-Na on normal human melanocytes, normal human keratinocytes and human melanoma cells were examined Normal human melanocytes, keratinocytes and M21 melanoma cells were allowed to proliferate in the presence or absence of C-45-Na (50 μg/mL) for 24 hours. Proliferation was monitored using a commercially available MTT assay (Millipore).

M21 melanoma cells = assay: M21 melanoma tumor growth in nude mice; format: in vivo
Procedure: Briefly, M21 melanoma cells (4.0×10^6) were injected subcutaneously in nude mice. Following establishment of palpable tumors (4 days), mice were either left untreated or treated daily by i.p injection with DMSO (50 μl/day), or with C-45-Na (50 μl/day) or C-45-HCl (50 μl/day) at a concentration range of 1-100 ug/day. Tumor size was monitored by caliper measurements and tumor volumes were estimated using the formula (L^2×W/2) where “L” represents length, and “W” represents width.
The effects of C45-Na on M21 melanoma tumor growth in vivo were studied. Briefly, M21 melanoma cells (4.0×10^6) were injected subcutaneously in nude mice. Following establishment of palpable tumors (4 days), mice were either left untreated or treated daily by i.p injection with DMSO (50 μl/day), or with C-45-Na concentrations of 0.1, 0.5, or 1.0 μg/day. Tumor size was monitored by caliper measurements and tumor volumes were estimated using the formula (L^2×W/2) where “L” represents length, and “W” represents width.
In experiment 11, an activity comparison between C-45-Na (1.0 μg) and C45-HCl (1.0 μg) on the in vivo growth of M21 tumors was examined following daily treatment after 21 days. Tumor size was monitored by caliper measurements and tumor volumes were estimated using the formula (L^2×W/2) where “L” represents length, and “W” represents width.

Human M21 melanoma cells [2] = assay: Melanoma cell morphology; format: cell-based; conditions: 100 μg/mL, 24 hours; FIG. 11A
Procedure: as §1

[3] = tested on: normal human keratinocytes; assay: Normal keratinocyte proliferation, MTT assay; format: cell-based; conditions: 50 μg/mL, 24 hours; FIG. 12C
Procedure: as §3

Normal human melanocytes = assay: Normal melanocyte proliferation, MTT assay; format: cell-based; conditions: 50 μg/mL, 24 hours; FIG. 12B
Procedure: as §3

[4] = tested on: MDA-MB 231 human breast carcinoma cells; assay: MDA-MB 231 breast carcinoma proliferation, MTT assay; format: cell-based; conditions: 100 μg/mL, 0.5% serum, 3 days; FIG. 14A
Procedure: as §2, with “MDA-MB 231 human breast carcinoma cells” for “Human M21 melanoma cells”, “containing 0.5%” for “containing 1.0%”, “presence” for “presence or absence”, “100 μg/mL” for “100 ng/mL”, “of C-45-Na” for “of C-45-Na,”, “C-45-Na and” for “C-45-Na or”

[5] = tested on: Panc-1 human pancreatic carcinoma cells; assay: Panc-1 pancreatic carcinoma proliferation, MTT assay; format: cell-based; conditions: 4.7, 9.3, 17.3, 37.5, and 75 μg/mL, 3 days; FIG. 14B
Procedure: Panc-1 human pancreatic carcinoma cells were allowed to proliferate over a 3-day time course in the presence or absence of a series of concentrations of C-45-Na (4.7, 9.3, 17.3, 37.5, and 75 μg/mL) of or C-45-HCl. DMSO control samples lacking C-45-Na and were also prepared. Treated cells (1,500/well) were added to individual wells of a cell culture microtiter plate and allowed to grow over a time course of 3 days. Proliferation was monitored using a commercially available MTT assay (Millipore). Data points represent the mean±standard deviations from triplicate wells.

[6] = tested on: A375 human melanoma cells; assay: A375 melanoma cell proliferation, MTT assay; format: cell-based; conditions: 100 μg/mL, 0.5% serum, 3 days; FIG. 13B
Procedure: as §2, with “C8161 and A375 human melanoma” for “Human M21 melanoma”, “containing 0.5%” for “containing 1.0%”, “presence” for “presence or absence”, “100 μg/mL” for “100 ng/mL”, “of C-45-Na” for “of C-45-Na,”, “C-45-Na and” for “C-45-Na or”

[7] = tested on: C8161 human melanoma cells; assay: C8161 melanoma cell proliferation, MTT assay; format: cell-based; conditions: 100 μg/mL, 0.5% serum, 3 days; FIG. 13A
Procedure: as §2, with “C8161 and A375 human melanoma” for “Human M21 melanoma”, “containing 0.5%” for “containing 1.0%”, “presence” for “presence or absence”, “100 μg/mL” for “100 ng/mL”, “of C-45-Na” for “of C-45-Na,”, “C-45-Na and” for “C-45-Na or”

Question: With `C=CCNc1ccc(C(=O)[O-])cc1.[Na+]` [C-45-Na, Sodium 4-allylaminobenzoate] as the compound, how does the “cell morphology, C8161” value (C8161 melanoma cells) read?
Answer: Its value is “significant cell rounding”.

Question: And the “selectivity, tumor cells versus normal human cells” value (Human M21 melanoma cells [1]; 50 μg/mL, 24 hours, M21 vs melanocytes and keratinocytes)?
Answer: The value was “selective for tumor cell proliferation rather than normal human cells”.

Question: What about the “M21 tumor cell proliferation” value (Human M21 melanoma cells [1]; Experiment 1: 100 ng/mL, 1.0% serum, 3 days, FIG. 6) of the same compound?
Answer: Its value is “very potent anti-proliferative activity”.

Question: What about the “M21 tumor cell proliferation” value (Human M21 melanoma cells [1]; Experiment 2: 100 ng/mL, 1.0% serum, 3 days, FIG. 7) of the same compound?
Answer: Its value is “very potent anti-proliferative activity”.

Question: And the “M21 tumor cell proliferation” value (Human M21 melanoma cells [1]; Experiment 3: 50 μg/mL, 0.5% serum, 3 days, FIG. 15)?
Answer: Its value is “very potent anti-proliferative activity”.

Question: And the “M21 tumor cell proliferation” value (Human M21 melanoma cells [1]; Experiment 8: 50 μg/mL, 24 hours, FIG. 12A)?
Answer: The value was “very potent anti-proliferative activity”.

Question: What about the “inhibition of M21 melanoma tumor growth” value (M21 melanoma cells; Experiment 9: daily i.p., 1.0 μg/day) of the same compound?
Answer: Its value is “Significant inhibition”.

Question: What about the “inhibition of tumor growth” value (M21 melanoma cells; Experiment 10: daily i.p., 0.1, 0.5, or 1.0 μg/day, days 8, 14, and 21 (P<0.05), FIG. 16) of the same compound?
Answer: Its value is “significant inhibition of tumor growth”.

Question: And the “inhibition of tumor growth” value (M21 melanoma cells; Experiment 11: 1.0 μg daily, day 21 (P<0.05), FIG. 17)?
Answer: The value was “significant inhibition of tumor growth”.

Question: And the “cell morphology, M21” value (Human M21 melanoma cells [2])?
Answer: The value was “significant cell rounding”.

Question: And the “effect on proliferation of normal human keratinocytes” value [3]?
Answer: Its value is “very little effect”.

Question: And the “effect on proliferation of normal human melanocytes” value (Normal human melanocytes)?
Answer: The value was “very little effect”.

Question: What about the “MDA-MB 231 cell proliferation” value [4] of the same compound?
Answer: Its value is “very potent anti-proliferative activity”.

Question: What about the panc-1 cell proliferation [5] of the same compound?
Answer: The panc-1 cell proliferation was “very potent anti-proliferative activity”.

Question: And the “A375 tumor cell proliferation” value [6]?
Answer: The value was “very potent anti-proliferative activity”.

Question: And the “C8161 tumor cell proliferation” value [7]?
Answer: The value was “very potent anti-proliferative activity”.

Reference: patent US8710099B2, “Treatment of cancer using the sodium salt of a benzoic acid derivative” (New York University, priority 2009, dated 2014)
